Reference: paper PMC7962978, “PSMA-D4 Radioligand for Targeted Therapy of Prostate Cancer: Synthesis, Characteristics and Preliminary Assessment of Biological Properties” (International Journal of Molecular Sciences, 2021)

How the values were obtained:
[1] = Lipophilicity determination (logD), shake-flask method; format: physicochemical; conditions: n-octanol / PBS pH 7.4, shake-flask
Method: The partition coefficient logD of the radioligands was determined by the shake-flask method. The solution of 10 to 50 MBq of radiolabeled PSMA ligands (D-4, 617, 11, I&T) in 1.0 mL of phosphate-buffered saline (PBS, pH 7.4) was added to 1.0 mL of presaturated n-octanol solution (n = 3). Vials were shaken vigorously for 10 min. To achieve quantitative phase separation, the vials were centrifuged at 1600 rpm for 5 min. The radioactivity concentration in a defined volume of both the aqueous and the organic phase in six replicates each was measured in a γ-counter (Wizard 1470, Wallac, Turku, Finland). The partition coefficient was calculated as the logarithm of the ratio between counts per minute (cpm) measured in the n-octanol phase to the PBS phase counts.

[2] = test system: LNCaP cells; experiment: Cell uptake (total binding) and internalization in LNCaP cells; format: cell-based, human; conditions: 37 °C, 2 h
Method: To determine cell uptake and internalization of [^177Lu]Lu-PSMA-D4 and [^90Y]Y-PSMA-D4, LNCaP cells (5 × 10^5 cells well^−1) were incubated in un-supplemented RPMI 1640 medium with one concentration of tested radioligands on 12-well plates in 37 °C per 2 h. After the appropriate time, the medium was removed, and cells were washed twice using phosphate buffer saline (PBS, IITD PAN, Wroclaw, Poland). The cells were treated twice with 1 mL of 50 mM glycine in 0.1 M NaCl at a pH of 2.8 and incubated for 5 min at room temperature to collect extracellularly bound compound. The internalization was determined by measuring the radioactivity of 1mL of 1 M NaOH used for cell lysis. Total binding was calculated as a sum of the membrane and internalized fractions measured using Wallac Wizard 1470 γ counter. As a control, [^177Lu]Lu-PSMA-617 and [^68Ga]Ga-PSMA-11 were used.

[3] = molecular target: T1, PSMA antigen (Homo sapiens, UniProt Q04609); experiment: Saturation radioligand binding assay on LNCaP (PSMA positive) and PC3 (PSMA negative) cell membranes
T1 construct: PSMA antigen expressed on LNCaP cell membranes; endogenous in cells; host or cells: LNCaP cell membranes (PC3 membranes as PSMA-negative control)
T1 sequence (Q04609 whole entry): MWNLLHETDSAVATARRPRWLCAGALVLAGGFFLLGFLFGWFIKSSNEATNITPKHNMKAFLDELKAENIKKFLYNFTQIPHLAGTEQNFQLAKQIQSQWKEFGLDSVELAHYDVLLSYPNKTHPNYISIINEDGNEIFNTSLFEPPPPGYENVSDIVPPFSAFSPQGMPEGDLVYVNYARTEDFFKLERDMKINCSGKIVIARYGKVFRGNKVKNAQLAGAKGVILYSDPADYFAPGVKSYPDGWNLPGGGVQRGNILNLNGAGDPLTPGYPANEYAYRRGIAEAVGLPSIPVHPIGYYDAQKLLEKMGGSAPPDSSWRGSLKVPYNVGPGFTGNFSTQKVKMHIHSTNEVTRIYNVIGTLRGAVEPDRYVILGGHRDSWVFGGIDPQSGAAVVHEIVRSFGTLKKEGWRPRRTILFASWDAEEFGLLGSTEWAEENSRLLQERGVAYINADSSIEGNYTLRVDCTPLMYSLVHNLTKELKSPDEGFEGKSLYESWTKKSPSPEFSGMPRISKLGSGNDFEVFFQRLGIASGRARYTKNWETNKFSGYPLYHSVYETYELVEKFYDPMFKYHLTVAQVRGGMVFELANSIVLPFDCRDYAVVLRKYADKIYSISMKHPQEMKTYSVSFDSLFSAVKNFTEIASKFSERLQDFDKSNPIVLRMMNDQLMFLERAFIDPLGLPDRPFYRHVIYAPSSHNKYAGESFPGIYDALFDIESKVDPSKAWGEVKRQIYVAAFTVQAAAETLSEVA
Method: The equilibrium constant (KD) was determined by a saturation binding experiment performed in PSMA positive LNCaP and PSMA negative PC3 cell membranes isolated according to the procedure developed by Fichna et al.. The 50 mcL of LNCaP and PC3 cell membranes were seeded on special MultiScreen™ 96 well filter plates (Merck, Warsaw, Poland) and incubated for 2 h with increasing concentration of [^177Lu]Lu-PSMA-D4, [^90Y]Y-PSMA-D4, and […] (0.016–194 nM) at 37 °C. After incubation, the unbound radiocomplexes were filtered under vacuum, and the membranes were washed twice using PBS. The filters containing membranes with the attached radiotracer were extruded into tubes using MultiScreen Multile Punch (Merck). The number of associated inhibitors was determined by measuring the radioactivity of squeezed filters using Wallac Wizard 1470 γ counter. The KD and Bmax were calculated by nonlinear regression using the GraphPad Prism statistic program.

[4] = test system: LNCaP tumor-bearing mice; experiment: Ex vivo biodistribution in mice bearing LNCaP tumor
Method: An experimental tumor murine model was induced using LNCaP cell, which grew to 80–90% confluence before trypsinization and formulation in Matrixgel™ Basement Membrane Matrix (Bedford, MA, USA) for implantation into mice. The mice were subcutaneously injected in the shoulder with 200 mcL bolus containing a suspension of 10^6 freshly harvested cell line LNCaP in Matrixgel™. This procedure was performed under anaesthesia with 2% isoflurane. The animals were kept under pathogen-free condition, and experiments were performed 2–3 weeks later when a tumor reached a volume of approximately 150 ± 60 mm^3. Then, the animals were randomized into two groups (25 mice per group, five mice per time point): Group 1, treated with a single intravenous injection of [^90Y]Y-PSMA-D4 (0.1 mL, 0.1 mcg, 15.5 MBq, SA 16.7 GBq mg^−1 = 17.2 GBq mcmol^−1) and Group 2, treated with a single intravenous injection of [^47Sc]Sc-PSMA-D4 (0.1 mL, 0.19 mcg, 10 MBq, SA 4.8 GBq mg^−1 = 4.57 GBq mcmol^−1).
At 1, 2, 4, 6, 24, and 48 h after injection, the animals were euthanized by cervical dislocation and dissected. Selected organs and tissues were assayed for their radioactivity and weighted. The physiological distribution was calculated and expressed in terms of the percentage of administrated radioactivity found in each of the selected organs or tissues per gram (%ID g^−1).
Results are provided as mean ± SD. The results of physiological distribution are presented as a percentage of the dose administered per gram of tissue (%ID g^−1) as average value with standard deviation (%ID g^−1; mean ± standard deviation (SD)) with n representing the number of animals per group. Data were statistically analyzed using GraphPad Prism version 8.0.0 for Window.

[5] = test system: LNCaP tumor-bearing mice; experiment: Cerenkov luminescence imaging (CLI) of LNCaP tumor-bearing mice; format: in vivo; conditions: 2-48 h p.i.
Method: The PhotonIMAGER Optima system (Biospace Lab, Nesles-la-Vallée, France) was used for the non-invasive detection, localization, and quantification of yttrium-90 signal from live animals based on Cerenkov luminescence imaging. It was feasible due to high-energy β^− particle emission produces continuous spectrum light photons or Cerenkov radiation. Optical imaging of [^90Y]Y-PSMA-D4 in LNCaP cell grafted mice was performed contemporaneously with ex vivo studies. The animals were placed individually in an induction chamber, where anaesthesia was induced with 5% isoflurane (Iso-Vet, Piramal Healthcare UK Limited, West Drayton, UK) in 100% oxygen with a delivery rate of 2 L min^−1 until loss of righting reflex. After induction, the animals were moved to the optical chamber. Anaesthesia was then maintained with 1.5–2% isoflurane in 100% oxygen with a flow of 1.5 L min^−1 administered through a facemask connected to a coaxial circuit. Body temperature was maintained at 37 °C by a heating table inside the chamber. At recovery, all animals received 100% oxygen until recovery of righting reflex. No mice were restrained during anaesthesia.

With `O=C([O-])CN1CCN(CC(=O)[O-])CCN(CC(=O)NCC2CCC(C(=O)NC(Cc3c[nH]c4ccccc34)C(=O)NCCCCC(NC(=O)NC(CCC(=O)O)C(=O)O)C(=O)O)CC2)CCN(CC(=O)[O-])CC1.[90Y+3]` (centres unmarked) [[^90Y]Y-PSMA-D4] the logD [1] was −5.18 ± 0.04, the Internalization [2] was 35.4% and the “Total Binding” value [2] was 16.8%. For the same molecule, the Kd ([3]; LNCaP cell membranes, 2 h, 37 °C) was 4.5 ± 2.1 nM, the “Specific Binding” value ([3]; total binding on LNCaP minus non-specific binding on PC3 membranes) was 99.9 ± 0.1% and the “T/B (ratio tumor to blood)” value ([4]; 2 h after i.v. injection) was 323.7. For the same molecule, the “T/K (ratio tumor to kidneys)” value ([4]; 2 h after i.v. injection) was 7.6, the “T/M (ratio tumor to muscle)” value ([4]; 2 h after i.v. injection) was 97.0 and the blood ([4]; 2 h after i.v. injection) was 0.06 ± 0.01 %ID g^−1. It also gave a kidneys ([4]; 2 h after i.v. injection) of 2.70 ± 0.20 %ID g^−1, a large intestine ([4]; 2 h after i.v. injection) of 0.12 ± 0.05 %ID g^−1 and a liver ([4]; 2 h after i.v. injection) of 0.08 ± 0.00 %ID g^−1. For the same molecule, the muscle ([4]; 2 h after i.v. injection) was 0.21 ± 0.13 %ID g^−1, the small intestine ([4]; 2 h after i.v. injection) was 0.32 ± 0.13 %ID g^−1 and the spleen ([4]; 2 h after i.v. injection) was 0.19 ± 0.06 %ID g^−1. The stomach ([4]; 2 h after i.v. injection) was 0.10 ± 0.04 %ID g^−1, the tumor ([4]; 2 h after i.v. injection) was 20.24 ± 5.52 %ID g^−1 and the urine ([4]; 2 h after i.v. injection) was 96.08 ± 0.53 %ID. For the same molecule, the “T/B (ratio tumor to blood)” value ([4]; 4 h after i.v. injection) was 312.9, the “T/K (ratio tumor to kidneys)” value ([4]; 4 h after i.v. injection) was 9.7 and the “T/M (ratio tumor to muscle)” value ([4]; 4 h after i.v. injection) was 324.4. The blood ([4]; 4 h after i.v. injection) was 0.05 ± 0.03 %ID g^−1, the kidneys ([4]; 4 h after i.v. injection) was 1.70 ± 0.13 %ID g^−1 and the large intestine ([4]; 4 h after i.v. injection) was 0.32 ± 0.16 %ID g^−1. It also gave a liver ([4]; 4 h after i.v. injection) of 0.08 ± 0.01 %ID g^−1, a muscle ([4]; 4 h after i.v. injection) of 0.05 ± 0.02 %ID g^−1 and a small intestine ([4]; 4 h after i.v. injection) of 0.30 ± 0.14 %ID g^−1. For the same molecule, the spleen ([4]; 4 h after i.v. injection) was 0.17 ± 0.06 %ID g^−1, the stomach ([4]; 4 h after i.v. injection) was 0.11 ± 0.05 %ID g^−1 and the tumor ([4]; 4 h after i.v. injection) was 16.40 ± 6.88 %ID g^−1. The urine ([4]; 4 h after i.v. injection) was 95.47 ± 3.07 %ID, the “T/B (ratio tumor to blood)” value ([4]; 6 h after i.v. injection) was 131.2 and the “T/K (ratio tumor to kidneys)” value ([4]; 6 h after i.v. injection) was 8.4. For the same molecule, the “T/M (ratio tumor to muscle)” value ([4]; 6 h after i.v. injection) was 983.7, the blood ([4]; 6 h after i.v. injection) was 0.06 ± 0.01 %ID g^−1 and the kidneys ([4]; 6 h after i.v. injection) was 0.98 ± 0.38 %ID g^−1. For the same molecule, the large intestine ([4]; 6 h after i.v. injection) was 0.20 ± 0.02 %ID g^−1, the liver ([4]; 6 h after i.v. injection) was 0.31 ± 0.07 %ID g^−1 and the muscle ([4]; 6 h after i.v. injection) was 0.01 ± 0.01 %ID g^−1. The small intestine ([4]; 6 h after i.v. injection) was 0.14 ± 0.11 %ID g^−1, the spleen ([4]; 6 h after i.v. injection) was 1.05 ± 0.29 %ID g^−1 and the stomach ([4]; 6 h after i.v. injection) was 0.04 ± 0.03 %ID g^−1. The tumor ([4]; 6 h after i.v. injection) was 8.28 ± 1.97 %ID g^−1, the urine ([4]; 6 h after i.v. injection) was 96.57 ± 2.44 %ID and the “T/B (ratio tumor to blood)” value ([4]; 24 h after i.v. injection) was 257.6. The “T/K (ratio tumor to kidneys)” value ([4]; 24 h after i.v. injection) was 29.0, the “T/M (ratio tumor to muscle)” value ([4]; 24 h after i.v. injection) was 387.4 and the blood ([4]; 24 h after i.v. injection) was 0.03 ± 0.03 %ID g^−1. The kidneys ([4]; 24 h after i.v. injection) was 0.30 ± 0.12 %ID g^−1, the large intestine ([4]; 24 h after i.v. injection) was 0.41 ± 0.15 %ID g^−1 and the liver ([4]; 24 h after i.v. injection) was 0.04 ± 0.01 %ID g^−1. The muscle ([4]; 24 h after i.v. injection) was 0.02 ± 0.02 %ID g^−1, the small intestine ([4]; 24 h after i.v. injection) was 0.20 ± 0.20 %ID g^−1 and the spleen ([4]; 24 h after i.v. injection) was 0.12 ± 0.06 %ID g^−1. For the same molecule, the stomach ([4]; 24 h after i.v. injection) was 0.06 ± 0.05 %ID g^−1, the tumor ([4]; 24 h after i.v. injection) was 8.33 ± 3.09 %ID g^−1 and the urine ([4]; 24 h after i.v. injection) was 94.79 ± 7.51 %ID. The “T/B (ratio tumor to blood)” value ([4]; 48 h after i.v. injection) was 193.0, the “T/K (ratio tumor to kidneys)” value ([4]; 48 h after i.v. injection) was 68.4 and the “T/M (ratio tumor to muscle)” value ([4]; 48 h after i.v. injection) was 351.4. For the same molecule, the blood ([4]; 48 h after i.v. injection) was 0.04 ± 0.02 %ID g^−1, the kidneys ([4]; 48 h after i.v. injection) was 0.12 ± 0.03 %ID g^−1 and the large intestine ([4]; 48 h after i.v. injection) was 0.84 ± 0.56 %ID g^−1. The liver ([4]; 48 h after i.v. injection) was 0.17 ± 0.07 %ID g^−1, the muscle ([4]; 48 h after i.v. injection) was 0.02 ± 0.01 %ID g^−1 and the small intestine ([4]; 48 h after i.v. injection) was 0.14 ± 0.07 %ID g^−1. The spleen ([4]; 48 h after i.v. injection) was 0.97 ± 0.62 %ID g^−1, the stomach ([4]; 48 h after i.v. injection) was 0.03 ± 0.03 %ID g^−1 and the tumor ([4]; 48 h after i.v. injection) was 8.03 ± 7.31 %ID g^−1. The urine ([4]; 48 h after i.v. injection) was 97.75 ± 0.34 %ID and the “in vivo CLI tumor visualization” value [5] was “excellent tumor visualization”.
